For assay [1], the target named is T1, human recombinant LSD1 (Homo sapiens, UniProt O60341). To be noted: previous studies ref 8; cited from earlier work.
For assay [2], the target named is T1, human recombinant LSD1. The assay is described as follows: Recombinant LSD1 inhibition assay. To be noted: 10 μM. The format is biochemical.

Take `Cl.N=C(NCCCNCCCCCCCNCCCNC(=N)NC(=N)NCCC(c1ccccc1)c1ccccc1)NC(=N)NCCC(c1ccccc1)c1ccccc1` [Compound 2, verlindamycin]: the Mode of inhibition result on human recombinant LSD1 [1] was “non-competitive inhibitor”.
For `Cl.O=C(NCCCNCCCCCNCCCNC(=O)Nc1ccccc1)Nc1ccccc1` [Compound 7a, 1,13-bis-{3-[1-(phenyl)ureido]}-4,10-diazatridecane dihydrochloride], the “Effect on LSD1 activity” value on human recombinant LSD1 [2] is listed as “increase in the activity of LSD1”.
The same measure, in the same setting: under `CCNC(=O)NCCCNCCCCCCNCCCNC(=O)NCC.Cl.Cl` [Compound 9a] stands “increase in the activity of LSD1”; under `CCCNC(=O)NCCCNCCCCCCNCCCNC(=O)NCCC.Cl.Cl` [Compound 9b], “increase in the activity of LSD1”.
Same read-out and setting: then `Cl.Cl.O=C(NCCCNCCCCCCNCCCNC(=O)NCc1ccccc1)NCc1ccccc1` [Compound 9d], with “increase in the activity of LSD1”.

The values above are taken from publication PMC4396983 (Bioorganic & medicinal chemistry, 2015).
